Measured values published in the supplement of paper PMC10307832.

How the values were obtained:
Assay in all cases: relative viability (nuclei count vs DMSO), 5 days (fraction); higher = more cells survive
[1] = compound: Cc1ccc(C(=O)Nc2ccc(CN3CCN(C)CC3)c(C(F)(F)F)c2)cc1C#Cc1cnc2cccnn12 [Ponatinib] + COc1cc2c(Oc3ccc(NC(=O)C4(C(=O)Nc5ccc(F)cc5)CC4)cc3F)ccnc2cc1OCCCN1CCOCC1 [Foretinib] (partner 0.25 µM)
Procedure, shortened: (§1)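 Dosing by pin tool came one day after lung cancer cell lines were seeded in 1536-well plates, using either one drug or a fixed anchor-drug dose plus five library-drug doses (not always all listed) in √10 steps. After 5 days, nuclei were counted on 4× images. Relative viability is treated-well nuclei count divided by vehicle-well nuclei count, and values are medians of duplicate plates.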

[2] = compound: Cc1ccc(C(=O)Nc2ccc(CN3CCN(C)CC3)c(C(F)(F)F)c2)cc1C#Cc1cnc2cccnn12 [Ponatinib] + CS(=O)(=O)CCNCc1ccc(-c2ccc3ncnc(Nc4ccc(OCc5cccc(F)c5)c(Cl)c4)c3c2)o1 [Lapatinib] (partner 2 µM)
Procedure, shortened: as §1

[3] = compound: Cc1ccc(Nc2nccc(N(C)c3ccc4c(C)n(C)nc4c3)n2)cc1S(N)(=O)=O [Pazopanib] + O=C(c1cc(Cc2n[nH]c(=O)c3ccccc23)ccc1F)N1CCN(C(=O)C2CC2)CC1 [Olaparib] (partner 8 µM)
Procedure, shortened: as §1

[4] = compound: Cc1ccc(Nc2nccc(N(C)c3ccc4c(C)n(C)nc4c3)n2)cc1S(N)(=O)=O [Pazopanib] + COc1cccc2cc(-c3nc([C@H]4CC[C@H](C(=O)O)CC4)n4ncnc(N)c34)[nH]c12 [OSI-027] (partner 0.5 µM)
Procedure, shortened: as §1

Cell Line	relative viability ([1]; first compound 0.002 µM)	relative viability ([1]; first compound 0.006325 µM)	relative viability ([1]; first compound 0.06325 µM)	relative viability ([1]; first compound 0.2 µM)	relative viability ([2]; first compound 0.002 µM)	relative viability ([2]; first compound 0.006325 µM)	relative viability ([2]; first compound 0.06325 µM)	relative viability ([2]; first compound 0.2 µM)	relative viability ([3]; first compound 0.01 µM)	relative viability ([3]; first compound 0.03162 µM)	relative viability ([3]; first compound 0.1 µM)	relative viability ([3]; first compound 0.3162 µM)	relative viability ([3]; first compound 1 µM)	relative viability ([4]; first compound 0.01 µM)	relative viability ([4]; first compound 0.03162 µM)	relative viability ([4]; first compound 0.1 µM)	relative viability ([4]; first compound 0.3162 µM)	relative viability ([4]; first compound 1 µM)
201T	1.1	1.1	1.18	1.03	1.04	1.03	1.09	1.02	0.863	0.865	0.85	0.825	0.822	0.83	0.575	0.799	0.742	0.747
A549	0.965	0.941	1.13	0.887	0.946	1.03	1.05	0.88	0.248	0.301	0.283	0.297	0.36					
A-427	1	1.19	1.11	0.715	1.05	0.96	1.05	0.98	0.729	0.8	0.758	0.812	0.791	0.512	0.481	0.462	0.516	0.448
ABC-1	1.01	0.995	1.15	1.09	1.1	1.17	1.2	0.864	1.01	1.15	0.959	0.946	0.782	0.367	0.572		0.668	0.579
BEN	0.549	0.663	0.457	0.674	0.503	0.509	0.721	0.628	1.06	1.29	1.11	0.943	0.931		0.348	0.314	0.287	0.314
CAL-12T	1.16	0.979	1.21	1.09	0.702	0.714	1	0.698	0.854	0.783	0.694	0.74	0.707	0.473	0.943	0.609	0.591	0.684
COR-L23	0.931	0.896	0.929	0.796	0.79	0.931	0.914	0.781	0.35	0.332	0.366	0.299	0.34	0.91	0.838	0.872	0.832	0.913
COR-L 105	0.882	1.15	1.23	1.3	0.385	0.369	0.374	0.347	0.699	0.649	0.667	0.584	0.745	0.636	0.665	0.635	0.75	0.857
Calu-6	0.849	0.867	0.931	0.816	1	0.954	1.22	1.03	0.601	0.559	0.589	0.579	0.5					
ChaGo-K-1	0.868	0.923	0.959	0.832					0.473	0.447	0.413	0.413	0.357	0.528	0.504	0.541	0.498	0.581
EBC-1	0.106	0.0969	0.092	0.115	0.2	0.233	0.225	0.227	0.696	0.754	0.696	0.751	0.752					
EKVX	0.615	0.784	0.846	1.01	0.222	0.217	0.349	0.234	0.766	1.05	0.863	0.867	0.911	0.664	0.741	0.642	0.691	0.788
EMC-BAC-2	0.965	0.989	1.06	0.986	0.797	0.852	0.918	0.806		0.476	0.457	0.43	0.43		0.424	0.394	0.404	0.399
EPLC-272H	0.735	0.784	0.912	0.416	0.917	1.05	0.957	0.654	0.87	0.792	1.06	0.944	0.845		0.253	0.337	0.336	0.277
H3255	0.739	0.898	0.699	0.773	0.222	0.268	0.263	0.21	0.583	0.541	0.627	0.564	0.564	0.512	0.535	0.638	0.606	0.752
HARA	0.859	0.855	0.963	0.878	0.88	0.887	0.406	0.378	0.938	0.778	0.958	1.26	0.795	0.581	0.583	0.504	0.642	0.6
HCC-15	0.974	0.928	1.13	1.01	0.797	0.916	0.922	0.901	0.689	0.671	0.697	0.723	0.672	0.622	0.825	0.7	0.669	0.815
HCC-44					0.969	0.903	1.12	1.06	0.991	0.995	1.02	0.995	1	0.405	0.572	0.584	0.68	0.677
HCC-78	0.521	0.578	0.598	0.534	0.74	0.709	0.597	0.63		0.87	0.778	0.906	0.995	0.361	0.423	0.348	0.411	0.371
HCC-366	0.887	0.939	0.955	0.956	1.01	1.01	1.08	1.01	0.31	0.357	0.396	0.396	0.35	0.807	0.992	0.823	0.975	0.945
HCC-827	0.971	1.02	0.997	1	0.214	0.186	0.202	0.184	0.675	0.644	0.691	0.706	0.673	0.775	0.752	0.784	0.801	0.731

Cell Line	relative viability ([1]; first compound 0.002 µM)	relative viability ([1]; first compound 0.006325 µM)	relative viability ([1]; first compound 0.06325 µM)	relative viability ([1]; first compound 0.2 µM)	relative viability ([2]; first compound 0.002 µM)	relative viability ([2]; first compound 0.006325 µM)	relative viability ([2]; first compound 0.06325 µM)	relative viability ([2]; first compound 0.2 µM)	relative viability ([3]; first compound 0.01 µM)	relative viability ([3]; first compound 0.03162 µM)	relative viability ([3]; first compound 0.1 µM)	relative viability ([3]; first compound 0.3162 µM)	relative viability ([3]; first compound 1 µM)	relative viability ([4]; first compound 0.01 µM)	relative viability ([4]; first compound 0.03162 µM)	relative viability ([4]; first compound 0.1 µM)	relative viability ([4]; first compound 0.3162 µM)	relative viability ([4]; first compound 1 µM)
HOP-62	0.999	1	1	0.914	0.929	0.987	0.856	0.91	0.411	0.454	0.518	0.383	0.288	0.787	0.869	0.871	0.879	0.727
IA-LM	1.06	1.1	1.01	1.06	0.897	0.67	0.77	0.721	0.719	0.909	0.925	0.774	0.658					
LC-2-ad	0.915	0.859	0.966	0.842	0.969	0.697	0.49	0.495	0.796	0.684	0.705	0.778	0.682	0.865	1	0.84	0.808	0.99
LCLC-97TM1	0.915	0.967	0.944	0.675		1		0.786		0.313	0.534	0.293	0.252	0.5	0.601	0.523	0.528	0.513
LCLC-103H	0.745	0.755	0.775	0.688					0.723	0.699	0.769	0.79	0.799	0.495	0.454	0.547	0.482	0.485
LK-2		1.07	0.687	0.739	0.82	0.861	0.696	0.54	0.575	0.673	0.735	0.807	0.539	0.199	0.228	0.185	0.233	0.171
LOU-NH91	0.929	0.98	0.996	0.931	0.717	0.788	0.755	0.709	0.925	0.888	0.926	0.96	0.931	0.701	0.753	0.719	0.781	0.728
LU99A	0.781	0.928	0.876	0.774	0.98	1.13	0.951	0.868		0.243	0.313	0.275	0.267	0.29	0.315	0.334	0.349	0.301
LXF-289	0.92	0.952	0.96	0.943	0.855	0.895	0.894	0.859	1.05	1.06	1.1	1.05	1.05	0.815	0.774	0.805	0.77	0.843
NCI-H23	0.949	1.04	1.04	0.832	1.03	1.02	1.31	0.985	0.315	0.343	0.297	0.321	0.36	0.559	0.617	0.648	0.643	0.637
NCI-H441	1.14	0.836	1.01	0.986					0.558	0.519	0.511	0.429	0.611	0.6	0.597	0.649	0.619	0.454
NCI-H522									0.587	0.617	0.678	0.707	0.642	0.705	0.662	0.705	0.636	0.775
NCI-H1299	1.07	1.09	1.15	1.07	0.956	0.968	0.979	0.934	1	0.961	0.934	0.993	0.865					
NCI-H1563	0.881	0.863	0.955	0.854	0.86	0.856	0.885	0.727						0.716	0.802	0.788	0.802	0.734
NCI-H1623	0.899	0.832	0.889	0.833										0.415	0.401	0.421	0.448	0.411
NCI-H1648											0.61	0.515	0.419	0.24	0.219	0.242	0.271	0.235
NCI-H1703	0.275	0.337	0.273	0.257	0.989	0.787	0.339	0.313	0.465		0.223	0.244	0.194					
NCI-H1792					0.854	0.85	0.92	0.847		0.384	0.435	0.483	0.384		0.714	0.702	0.746	0.673
NCI-H2342	1.04	1.04	1.01	0.972					0.385	0.443	0.481	0.386	0.365	0.535	0.665	0.564	0.624	0.524
SW 900	0.893	0.998	1.12	0.593					0.942	1.07		0.915	0.945	0.478	0.535	0.515	0.588	0.565
